As a reminder, the pIC50 is the negative decadic logarithm of the IC50, by convention in mol/L. A higher pIC50 goes with a low IC50.

pIC50: −log10 of the molar value. Where only a bound is given, the exact number is not on record here.

In ChEMBL document CHEMBL1126935, “N-acyl-L-tryptophan benzyl esters: potent substance P receptor antagonists” (J Med Chem, 1993) one finds IC50 data, which are given here for seven molecules.

The test has as its target Substance-P receptor (Homo sapiens, UniProt P25103). Kind of test: Tested against cloned human NK1 receptor by displacement of 125 I -labeled substance P expressed in CHO cells. The class given is cell-based.

Sequence of Substance-P receptor (P25103 whole entry): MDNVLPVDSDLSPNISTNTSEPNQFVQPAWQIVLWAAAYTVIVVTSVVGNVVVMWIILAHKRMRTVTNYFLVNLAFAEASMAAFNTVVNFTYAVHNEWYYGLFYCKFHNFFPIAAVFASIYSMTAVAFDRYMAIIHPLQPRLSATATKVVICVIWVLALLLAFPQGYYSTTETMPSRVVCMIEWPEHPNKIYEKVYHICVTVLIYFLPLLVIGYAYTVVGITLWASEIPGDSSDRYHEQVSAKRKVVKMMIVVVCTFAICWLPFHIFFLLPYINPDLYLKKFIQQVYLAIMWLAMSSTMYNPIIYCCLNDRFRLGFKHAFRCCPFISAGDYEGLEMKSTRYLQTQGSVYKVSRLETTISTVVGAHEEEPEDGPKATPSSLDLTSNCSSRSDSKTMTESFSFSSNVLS

In turn, `N[C@@H](Cc1c[nH]c2ccccc12)C(=O)OCc1ccccc1` showed a pIC50 below 5.00. In the case of `Cc1cc(C)cc(COC(=O)[C@H](Cc2c[nH]c3ccccc23)N(C)C)c1` it was 6.26; in that of `Cc1cc(C)cc(COC(=O)[C@H](Cc2c[nH]c3ccccc23)[N+](C)(C)C)c1`, 6.90; in that of `CC(=O)N[C@@H](Cc1c[nH]c2ccccc12)C(=O)OCc1cc(C)cc(C)c1` [L-708568], 7.17. As for `CC(C)(C)OC(=O)N[C@@H](Cc1c[nH]c2ccccc12)C(=O)OCc1ccccc1`, the pIC50 was 6.38. Molecule `COc1ccccc1COC(=O)[C@H](Cc1c[nH]c2ccccc12)NC(=O)OC(C)(C)C` had a pIC50 of 6.55.

The molecule `Cc1cc(C)cc(COC(=O)[C@@H](N)Cc2c[nH]c3ccccc23)c1` had a pIC50 of 5.81.
